Test results published in publication PMC9661477, “New Dual P-Glycoprotein (P-gp) and Human Carbonic Anhydrase XII (hCA XII) Inhibitors as Multidrug Resistance (MDR) Reversers in Cancer Cells” (Journal of Medicinal Chemistry, 2022).
Structures can show the parent of a compound that is named as a salt.

Tests used:
hCA IX = hCA IX (Homo sapiens, UniProt Q16790); experiment: stopped-flow CO2 hydrase assay, hCA IX; details: read-out: Ki hCA IX; stopped-flow technique, mean from three different assays
Text: (§1) An SX.18MV-R Applied Photophysics (Oxford, U.K.) stopped-flow instrument has been used to assay the catalytic/inhibition of various CA isozymes.[38] […] The inhibition constants were obtained by nonlinear least-squares methods using the Cheng–Prusoff equation, as reported earlier,[32] and represent the mean from at least three different determinations.

hCA I = hCA I (Homo sapiens, UniProt P00915); experiment: stopped-flow CO2 hydrase assay, hCA I; details: read-out: Ki hCA I; stopped-flow technique, mean from three different assays
hCA I, sequence (P00915 whole entry): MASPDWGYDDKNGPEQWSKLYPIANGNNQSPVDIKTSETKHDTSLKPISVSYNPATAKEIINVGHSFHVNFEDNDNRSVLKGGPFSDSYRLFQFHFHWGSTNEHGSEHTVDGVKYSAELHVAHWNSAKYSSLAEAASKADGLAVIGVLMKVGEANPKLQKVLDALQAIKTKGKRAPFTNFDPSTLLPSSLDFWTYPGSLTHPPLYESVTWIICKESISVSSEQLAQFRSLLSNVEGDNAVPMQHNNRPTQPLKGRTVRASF
Text: as §1

hCA II = hCA II (Homo sapiens, UniProt P00918); experiment: stopped-flow CO2 hydrase assay, hCA II; details: read-out: Ki hCA II; stopped-flow technique, mean from three different assays
Text: as §1

Row | Structure (SMILES) | melting point | other results
1 | COc1cc(C(=O)OCCCCCCN(CCCOC(=O)c2cc(OC)c(OC)c(OC)c2)CCCOc2ccc3ccc(=O)oc3c2)cc(OC)c1OC (as salt: hydrochloride) [Compound 14, 6-((3-((2-Oxo-2H-chromen-7-yl)oxy)propyl)(3-((3,4,5-trimethoxybenzoyl)oxy)propyl)amino)hexyl 3,4,5-Trimethoxybenzoate] | 83 to 85 °C | 
2 | COc1cc(/C=C/C(=O)OCCCN(CCCCCOC(=O)c2c3ccccc3cc3ccccc23)CCCOc2ccc3ccc(=O)oc3c2)cc(OC)c1OC (as salt: hydrochloride) [Compound 7, (E)-5-((3-((2-Oxo-2H-chromen-7-yl)oxy)propyl)(3-((3-(3,4,5-trimethoxyphenyl)acryloyl)oxy)propyl)amino)pentyl Anthracene-9-carboxylate] | 92 to 95 °C | 
3 | COc1cc(C(=O)OCCCCCN(CCCOC(=O)c2cc(OC)c(OC)c(OC)c2)CCCOc2ccc3ccc(=O)oc3c2)cc(OC)c1OC (as salt: hydrochloride) [Compound 5, 5-((3-((2-Oxo-2H-chromen-7-yl)oxy)propyl)(3-((3,4,5-trimethoxybenzoyl)oxy)propyl)amino)pentyl 3,4,5-Trimethoxybenzoate] | 84 to 87 °C | 
4 | COc1cc(/C=C/C(=O)OCCCCCN(CCCOC(=O)/C=C/c2cc(OC)c(OC)c(OC)c2)CCCOc2ccc3ccc(=O)oc3c2)cc(OC)c1OC (as salt: hydrochloride) [Compound 1, (E)-5-((3-((2-Oxo-2H-chromen-7-yl)oxy)propyl)(3-(((E)-3-(3,4,5-trimethoxyphenyl)acryloyl)oxy)propyl)amino)pentyl 3-(3,4,5-Trimethoxyphenyl)acrylate] | 81 to 84 °C | 
5 | COc1cc(/C=C/C(=O)OCCCCCCN(CCCOC(=O)c2cc(OC)c(OC)c(OC)c2)CCCOc2ccc3ccc(=O)oc3c2)cc(OC)c1OC (as salt: hydrochloride) [Compound 11, (E)-3-((3-((2-Oxo-2H-chromen-7-yl)oxy)propyl)(6-((3-(3,4,5-trimethoxyphenyl)acryloyl)oxy)hexyl)amino)propyl 3,4,5-Trimethoxybenzoate] | 71 to 74 °C | 
6 | COc1cc(C(=O)OCCCN(CCCCCCOC(=O)c2c3ccccc3cc3ccccc23)CCCOc2ccc3ccc(=O)oc3c2)cc(OC)c1OC (as salt: hydrochloride) [Compound 17, 6-((3-((2-Oxo-2H-chromen-7-yl)oxy)propyl)(3-((3,4,5-trimethoxybenzoyl)oxy)propyl)amino)hexyl Anthracene-9-carboxylate] | 87 to 90 °C | 
7 | COc1cc(C(=O)OCCCCCN(CCCOC(=O)c2c3ccccc3cc3ccccc23)CCCOc2ccc3ccc(=O)oc3c2)cc(OC)c1OC (as salt: hydrochloride) [Compound 6, 3-((3-((2-Oxo-2H-chromen-7-yl)oxy)propyl)(5-((3,4,5-trimethoxybenzoyl)oxy)pentyl)amino)propyl Anthracene-9-carboxylate] | 114 to 117 °C | 
8 | COc1cc(/C=C/C(=O)OCCCCCN(CCCOC(=O)c2cc(OC)c(OC)c(OC)c2)CCCOc2ccc3ccc(=O)oc3c2)cc(OC)c1OC (as salt: hydrochloride) [Compound 2, (E)-3-((3-((2-Oxo-2H-chromen-7-yl)oxy)propyl)(5-((3-(3,4,5-trimethoxyphenyl)acryloyl)oxy)pentyl)amino)propyl 3,4,5-Trimethoxybenzoate] | 128 to 131 °C | 
9 | COc1cc(/C=C/C(=O)OCCCCCCN(CCCOC(=O)c2c3ccccc3cc3ccccc23)CCCOc2ccc3ccc(=O)oc3c2)cc(OC)c1OC (as salt: hydrochloride) [Compound 12, (E)-3-((3-((2-Oxo-2H-chromen-7-yl)oxy)propyl)(6-((3-(3,4,5-trimethoxyphenyl)acryloyl)oxy)hexyl)amino)propyl Anthracene-9-carboxylate] | 99 to 102 °C | 
10 | COc1cc(/C=C/C(=O)OCCCN(CCCCCOC(=O)c2cc(OC)c(OC)c(OC)c2)CCCOc2ccc3ccc(=O)oc3c2)cc(OC)c1OC (as salt: hydrochloride) [Compound 4, (E)-5-((3-((2-Oxo-2H-chromen-7-yl)oxy)propyl)(3-((3-(3,4,5-trimethoxyphenyl)acryloyl)oxy)propyl)amino)pentyl 3,4,5-Trimethoxybenzoate] | 74 to 77 °C | 
11 | COc1cc(C(=O)OCCCCCCCN(CCCOC(=O)c2c3ccccc3cc3ccccc23)CCCOc2ccc3ccc(=O)oc3c2)cc(OC)c1OC [Compound 24, 3-((3-((2-Oxo-2H-chromen-7-yl)oxy)propyl)(7-((3,4,5-trimethoxybenzoyl)oxy)heptyl)amino)propyl Anthracene-9-carboxylate] |  | Ki (hCA IX): 0.0385 µM; Ki (hCA I): > 10 µM; Ki (hCA II): > 10 µM
12 | COc1cc(C(=O)OCCCN(CCCCCCOC(=O)c2c3ccccc3cc3ccccc23)CCCOc2ccc3ccc(=O)oc3c2)cc(OC)c1OC [Compound 17, 6-((3-((2-Oxo-2H-chromen-7-yl)oxy)propyl)(3-((3,4,5-trimethoxybenzoyl)oxy)propyl)amino)hexyl Anthracene-9-carboxylate] |  | Ki (hCA IX): 0.123 µM; Ki (hCA I): > 10 µM; Ki (hCA II): > 10 µM

More lines, main results first:

Row | melting point | Structure (SMILES) | other results
13 | 75 to 77 °C | COc1cc(C(=O)OCCCCCCCN(CCCOC(=O)c2c3ccccc3cc3ccccc23)CCCOc2ccc3ccc(=O)oc3c2)cc(OC)c1OC (as salt: hydrochloride) [Compound 24, 3-((3-((2-Oxo-2H-chromen-7-yl)oxy)propyl)(7-((3,4,5-trimethoxybenzoyl)oxy)heptyl)amino)propyl Anthracene-9-carboxylate] | 
14 | 97 to 99 °C | COc1cc(C(=O)OCCCN(CCCCCCCOC(=O)c2c3ccccc3cc3ccccc23)CCCOc2ccc3ccc(=O)oc3c2)cc(OC)c1OC (as salt: hydrochloride) [Compound 26, 7-((3-((2-Oxo-2H-chromen-7-yl)oxy)propyl)(3-((3,4,5-trimethoxybenzoyl)oxy)propyl)amino)heptyl Anthracene-9-carboxylate] | 
15 | 74 to 77 °C | COc1cc(C(=O)OCCCCCCCN(CCCOC(=O)c2cc(OC)c(OC)c(OC)c2)CCCOc2ccc3ccc(=O)oc3c2)cc(OC)c1OC (as salt: hydrochloride) [Compound 23, 7-((3-((2-Oxo-2H-chromen-7-yl)oxy)propyl)(3-((3,4,5-trimethoxybenzoyl)oxy)propyl)amino)heptyl 3,4,5-Trimethoxybenzoate] | 
16 | 84 to 87 °C | COc1cc(/C=C/C(=O)OCCCCCCCN(CCCOC(=O)c2cc(OC)c(OC)c(OC)c2)CCCOc2ccc3ccc(=O)oc3c2)cc(OC)c1OC (as salt: hydrochloride) [Compound 20, (E)-3-((3-((2-Oxo-2H-chromen-7-yl)oxy)propyl)(7-((3-(3,4,5-trimethoxyphenyl)acryloyl)oxy)heptyl)amino)propyl 3,4,5-Trimethoxybenzoate] | 
17 | 107 to 110 °C | COc1cc(/C=C/C(=O)OCCCN(CCCCCCCOC(=O)c2c3ccccc3cc3ccccc23)CCCOc2ccc3ccc(=O)oc3c2)cc(OC)c1OC (as salt: hydrochloride) [Compound 25, (E)-7-((3-((2-Oxo-2H-chromen-7-yl)oxy)propyl)(3-((3-(3,4,5-trimethoxyphenyl)acryloyl)oxy)propyl)amino)heptyl Anthracene-9-carboxylate] | 
